Source: patent US6994986B2, “In vitro synthesis of polypeptides by optimizing amino acid metabolism” (The Board of Trustees of the Leland Stanford University, priority 1999, dated 2006)

Tests used:
[1] = target: T1, phosphoenol pyruvate synthetase (pps) (Escherichia coli, UniProt P23538); assay: Aspartic acid/asparagine formation in the cell-free reaction mixture; format: biochemical, E. coli; details: 2.7 mM oxalic acid; FIG. 6
T1 construct: endogenous in cells; host or cells: E. coli K12 strain A19, S30 cell extract
Experimental: (§1) The observations indicated in the previous examples prompted the measurement of individual amino acid concentrations during the course of a protein synthesis reaction. In this case, a pyruvate-driven reaction of 900 μl was started. Samples of 100 μl were taken each hour, diluted 1:1 with cold water and deproteinized by adding 200 μl of cold 10% TCA (trichloroacetic acid) solution. After centrifugation the supernatant was analyzed using a Beckman 1600 amino acid analyzer. […] This is a potentially serious source of reaction inefficiency. In the second case, the depletion of the three amino acids is most likely the reason that prolonging the reaction required amino acids addition.
The conversion of pyruvate to PEP is catalyzed by the enzyme, phosphoenol pyruvate synthetase (pps). Oxalic acid has been reported to inhibit pps. To test to see if the pps reaction is indeed responsible for aspartic acid and asparagine synthesis and to test if these reactions are reducing the protein yield, 2.7 mM oxalic acid was added to both the pyruvate system and the PEP system. […] With the pyruvate system, less pyruvate and ATP are being lost to amino acid formation. In the case with PEP as the energy source, pyruvate is the direct product after PEP transfers its phosphate to ADP. That pyruvate will then be converted back into PEP by pps, but at the cost of two ATP's for each new PEP molecule. […]

E. coli S30 extract [2] = assay: Cell-free protein synthesis, PEP system (phosphoenol pyruvate / pyruvate kinase ATP regeneration); format: biochemical, Escherichia coli
Experimental: (§2) Throughout the examples to follow, two standard methods were used for cell-free protein synthesis. The first uses phosphoenol pyruvate (PEP) and pyruvate kinase to regenerate ATP from ADP. This is termed the PEP system. The second uses pyruvate and pyruvate oxidase to regenerate ATP. This is called the pyruvate system.
57 mM Hepes-KOH (pH 8.2), 1.2 mM ATP, 0.85 mM each of GTP, UTP and CTP, 1 mM DTT, 0.64 mM cAMP, 200 mM potassium glutamate, 80 mM NH4(OAc), 15 mM Mg(OAc)2, […] folinic acid, 6.7 μg/ml plasmid, 33 μg/ml T7 RNA polymerase, 500 μM each of 20 unlabeled amino acids, [^3H] leucine (0.27 GBq/mmol), 2% PEG 8000, 20 mM PEP (phosphoenol pyruvate), and 0.24 volumes of S30 extract. […]
(§3) Reactions were conducted for given time periods in a water bath set at 37° C. The amount of synthesized protein was estimated from the measured cold TCA-insoluble radioactivities as described (Kim et al., supra.) Radioactivities of samples were measured in a liquid scintillation counter (Beckman). […]
(§4) The amount of synthesized protein was estimated from the measured TCA-insoluble radioactivities as described earlier (Kim et al., 1996a, supra.) Radioactivities of samples were measured in a liquid scintillation counter (Beckman LS3801). […]

E. coli S30 extract [3] = assay: Cell-free protein synthesis, pyruvate system (pyruvate / pyruvate oxidase ATP regeneration); format: biochemical, Escherichia coli
Experimental: as §2
T7 RNA polymerase was prepared from the culture of E. coli strain BL21 (pAR1219) according to the slightly modified procedures of Davanloo et al. (1984) Proc. Natl. Acad. Sci. U.S.A. 81: 2035–2039. S30 extract was prepared from wild type E. coli K12 (strain A19) according to the procedures reported earlier (Kim et al., supra.). The standard reaction mixture for the pyruvate system is nearly identical. […]
as §3, §4

acetate kinase = acetate kinase (Escherichia coli, UniProt P0A6A3); details: read-out: Km value of acetate kinase for acetyl phosphate; cited from earlier work
arginine decarboxylase = target: T2, arginine decarboxylase (Escherichia coli, UniProt P21170); assay: Arginine depletion in the cell-free reaction mixture (amino acid analysis); format: biochemical, E. coli; design: dose or concentration left out as unconfirmed; details: spermidine; FIG. 5
T2 construct: endogenous in cells; host or cells: E. coli K12 strain A19, S30 cell extract
Experimental: as §1
The data shown in FIGS. 3 and 4 indicate that the degradation of three amino acids, arginine, cysteine and tryptophan is seriously limiting the efficiency and duration of the protein synthesis reaction. […] In the case of arginine, one possible cause is the action of arginine decarboxylase. This is the first enzyme in the pathway for the conversion of arginine to putrescine and spermidine, cationic molecules important for normal bacterial physiology. Putrescine and spermidine can also be produced from ornithine, but arginine is preferred when it is available. (See FIG. 10) Arginine decarboxylase is known to be feedback inhibited by spermidine. […]

T1 sequence (P23538 whole entry): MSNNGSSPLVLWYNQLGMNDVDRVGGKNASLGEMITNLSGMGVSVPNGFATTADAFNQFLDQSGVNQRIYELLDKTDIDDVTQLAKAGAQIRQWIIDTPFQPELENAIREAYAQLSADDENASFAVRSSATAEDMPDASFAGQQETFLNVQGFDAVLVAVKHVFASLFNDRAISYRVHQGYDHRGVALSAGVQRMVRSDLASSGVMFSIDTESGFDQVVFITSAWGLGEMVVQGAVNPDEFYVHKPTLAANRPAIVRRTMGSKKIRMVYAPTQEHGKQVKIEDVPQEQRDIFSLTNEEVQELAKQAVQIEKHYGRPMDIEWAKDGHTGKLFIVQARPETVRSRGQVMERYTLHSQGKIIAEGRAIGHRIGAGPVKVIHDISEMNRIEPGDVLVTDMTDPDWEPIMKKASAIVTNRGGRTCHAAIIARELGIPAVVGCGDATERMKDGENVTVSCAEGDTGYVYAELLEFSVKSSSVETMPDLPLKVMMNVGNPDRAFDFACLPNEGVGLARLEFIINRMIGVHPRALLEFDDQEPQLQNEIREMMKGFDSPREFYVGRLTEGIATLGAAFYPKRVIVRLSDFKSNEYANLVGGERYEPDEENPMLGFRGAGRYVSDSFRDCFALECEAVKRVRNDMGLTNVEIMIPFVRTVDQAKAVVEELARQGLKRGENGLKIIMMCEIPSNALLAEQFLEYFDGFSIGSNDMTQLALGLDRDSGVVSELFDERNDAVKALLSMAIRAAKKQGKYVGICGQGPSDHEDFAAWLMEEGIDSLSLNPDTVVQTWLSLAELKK
T2 sequence (P21170 whole entry): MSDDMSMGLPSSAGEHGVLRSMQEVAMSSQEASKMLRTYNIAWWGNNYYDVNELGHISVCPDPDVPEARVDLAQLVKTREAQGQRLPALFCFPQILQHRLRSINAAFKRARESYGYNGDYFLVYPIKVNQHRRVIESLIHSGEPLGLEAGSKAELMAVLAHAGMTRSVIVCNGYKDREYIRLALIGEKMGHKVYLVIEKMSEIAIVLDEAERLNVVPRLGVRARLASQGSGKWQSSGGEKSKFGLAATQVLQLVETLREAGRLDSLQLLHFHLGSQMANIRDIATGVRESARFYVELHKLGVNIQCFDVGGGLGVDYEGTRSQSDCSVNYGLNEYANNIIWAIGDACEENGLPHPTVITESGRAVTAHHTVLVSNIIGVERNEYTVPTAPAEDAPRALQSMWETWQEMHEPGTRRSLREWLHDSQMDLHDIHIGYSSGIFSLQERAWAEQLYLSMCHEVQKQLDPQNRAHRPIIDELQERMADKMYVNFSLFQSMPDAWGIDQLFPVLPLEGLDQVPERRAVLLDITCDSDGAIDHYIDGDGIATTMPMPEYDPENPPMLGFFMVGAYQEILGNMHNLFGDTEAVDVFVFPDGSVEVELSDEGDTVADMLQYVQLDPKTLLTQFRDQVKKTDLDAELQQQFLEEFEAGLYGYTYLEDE
Chain of acetate kinase (P0A6A3 whole entry): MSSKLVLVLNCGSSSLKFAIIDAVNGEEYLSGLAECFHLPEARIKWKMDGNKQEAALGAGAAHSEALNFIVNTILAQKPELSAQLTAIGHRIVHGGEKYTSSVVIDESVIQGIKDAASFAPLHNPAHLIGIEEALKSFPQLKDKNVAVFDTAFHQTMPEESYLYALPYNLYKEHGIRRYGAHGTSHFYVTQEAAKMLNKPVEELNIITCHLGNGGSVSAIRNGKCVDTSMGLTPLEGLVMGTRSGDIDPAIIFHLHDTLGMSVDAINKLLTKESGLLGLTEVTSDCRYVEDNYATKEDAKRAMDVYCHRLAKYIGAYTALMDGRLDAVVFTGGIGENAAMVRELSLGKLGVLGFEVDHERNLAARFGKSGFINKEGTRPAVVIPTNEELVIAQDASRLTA

For `O=C(O)C(=O)O` [oxalic acid], the “formation of aspartic acid and asparagine” value [1] was “reduced”, the protein yield (E. coli S30 extract [2]; 2.7 mM oxalic acid, PEP system, FIG. 8) was “increases the protein yield” and the protein yield (E. coli S30 extract [3]; 2.7 mM oxalic acid, pyruvate system, FIG. 7) was “increases the protein yield”.
With catalase the “effect on rate or duration of protein synthesis” value (E. coli S30 extract [3]; exogenous catalase added to the reaction mixture) was “did not affect either the rate or duration of protein synthesis”.
In the case of `CC(=O)OP(=O)(O)O` [acetyl phosphate], the Km (acetate kinase) is given as 200 µM and the “support of protein synthesis as energy source” value (E. coli S30 extract [2]; energy source in place of PEP) is given as “as efficiently as PEP”.
In the case of `NCCCCNCCCN` [spermidine], the arginine depletion (arginine decarboxylase) is reported as “significantly slow arginine depletion”.
